Reference: patent US20150057154A1, “HERBICIDAL COMPOSITIONS COMPRISING SULFENTRAZONE plus PROPYZAMIDE AND SULFENTRAZONE PLUS PROPYZAMIDE PLUS ETHALFLURALIN” (Dow AgroSciences LLC, priority 2013, published 2015)

Columns and labels:
Type in all cases: in vivo
[1] = tested on: Kochia scoparia (kochia, KCHSC); experiment: Field trial, percent visual weed control of kochia
Method: (§1) These trials were conducted under field conditions in western Canada. The trials were designed as split-block, factorial designs with timing (spring vs. fall), Authority 480 (sulfentrazone) rate (0, 52 or 105 g ai/ha), Kerb™ SC (propyzamide) rate (0, 450 or 900 g ai/ha) as the main factors and Edge™ Granular (ethalfluralin) application (0 or 1100 g ai/ha) as the split-block factor. Edge™ was applied to test plots at a rate of 1100 g ai/ha using a granular applicator in the fall of 2011 (17 October to 9 November). Authority 480 and Kerb™ SC treatments were applied to test plots either in the fall prior to or after Edge™ application (17 October to 3 November), or in the spring of 2012 (24 April to 5 May). An untreated control was also included in each trial. Following herbicide treatment application in the spring of 2012, lentils were seeded or field peas were seeded into plots. Weed efficacy assessments were taken at 9-15 days after the spring application (DAA2) for an initial evaluation, 33 DAA2 for an early evaluation, 48-52 DAA2 for a mid evaluation, and 77-85 DAA2 for a late evaluation. The trial sites had naturally occurring populations of weeds. The weed spectrum included, but was not limited to, Avena fatua (wild oats, AVEFA), Hordeum jubatum (foxtail barley, HORJU), Kochia scoparia (kochia, KCHSC) and Sinapis arvensis L. (wild mustard, SINAR).
(§2) The treated plots and control plots were rated blind at various intervals after application. Ratings were based of Percent (%) Visual weed control, where 0 corresponds to no injury and 100 corresponds to complete kill.
(§3) Colby's equation was used to determine the herbicidal effects expected from the mixtures (Colby, S. R. Calculation of the synergistic and antagonistic response of herbicide combinations. Weeds 1967, 15, 20-22).
(§4) The following equation was used to calculate the expected activity of mixtures containing two active ingredients, A and B:
(§5) Expected=A+B−(A×B/100) • A=observed efficacy of active ingredient A at the same concentration as used in the mixture; • B=observed efficacy of active ingredient B at the same concentration as used in the mixture.
(§6) For mixtures containing three herbicidal active ingredients, the following equation can be used to calculate the expected activity:
(§7) [formula] • A=observed efficacy of a first active ingredient at the same concentration as used in the mixture; • B=observed efficacy of a second active ingredient B at the same concentration as used in the mixture; • C=observed efficacy of a third active ingredient C at the same concentration as used in the mixture.

[2] = tested on: Sinapis arvensis L. (wild mustard, SINAR); experiment: Field trial, percent visual weed control of wild mustard
Method: as §1, §2, §3, §4, §5, §6, §7

[3] = tested on: Avena fatua (wild oats, AVEFA); experiment: Field trial, percent visual weed control of wild oats
Method: as §1, §2, §3, §4, §5, §6, §7

[4] = tested on: Hordeum jubatum (foxtail barley, HORJU); experiment: Field trial, percent visual weed control of foxtail barley
Method: as §1, §2, §3, §4, §5, §6, §7

[5] = Table 3 (Spring applications), ethalfluralin 1100 g ai/ha (Edge Granular applied in the fall)
[6] = Table 4, Fall application, ethalfluralin 1100 g ai/ha
[7] = Table 1, Fall application, propyzamide 450 g ai/ha
[8] = Table 1, Fall application, propyzamide 900 g ai/ha
[9] = Table 2, Spring application, propyzamide 450 g ai/ha
[10] = Table 2, Spring application, propyzamide 900 g ai/ha
[11] = Table 3, Spring application, propyzamide 450 g ai/ha
[12] = Table 1, Fall application, sulfentrazone 52 g ai/ha
[13] = Table 1, Fall application, sulfentrazone 105 g ai/ha
[14] = Table 2, Spring application, sulfentrazone 52 g ai/ha
[15] = Table 3, Spring application, sulfentrazone 52 g ai/ha
[16] = Table 4, Fall application, sulfentrazone 52 g ai/ha

For C=C(C)CN(CC)c1c([N+](=O)[O-])cc(C(F)(F)F)cc1[N+](=O)[O-] [Ethalfluralin, N-ethyl-N-(2-methyl-2-propen-1-yl)-2,6-dinitro-4-(trifluoromethyl)benzenamine], the “KCHSC Obs (Observed percent weed control)” value [1, 5] was 55%, the “KCHSC Obs (Observed percent weed control)” value [1, 6] was 55% and the “SINAR Obs (Observed percent weed control)” value [2, 5] was 0%. The “SINAR Obs (Observed percent weed control)” value [2, 6] was 0% and the “AVEFA Obs (Observed percent weed control)” value [3, 5] was 49%.
In the case of C#CC(C)(C)NC(=O)c1cc(Cl)cc(Cl)c1 [Propyzamide, 3,5-dichloro-N-(1,1-dimethyl-2-propyn-1-yl)benzamide], the “HORJU Obs (Observed percent weed control)” value [4, 7] is reported as 18%, the “HORJU Obs (Observed percent weed control)” value [4, 8] is reported as 59% and the “HORJU Obs (Observed percent weed control)” value [4, 9] is reported as 30%. For the same compound, the “HORJU Obs (Observed percent weed control)” value [4, 10] was 68%, the “KCHSC Obs (Observed percent weed control)” value [1, 7] was 0% and the “KCHSC Obs (Observed percent weed control)” value [1, 8] was 65%. For the same compound, the “KCHSC Obs (Observed percent weed control)” value [1, 10] was 0%, the “KCHSC Obs (Observed percent weed control)” value [1, 11] was 17% and the “KCHSC Obs (Observed percent weed control)” value ([1]; Table 4, Fall application, propyzamide 450 g ai/ha) was 0%. For the same compound, the “SINAR Obs (Observed percent weed control)” value [2, 8] was 38%, the “SINAR Obs (Observed percent weed control)” value ([2]; Table 3, Spring application, propyzamide 900 g ai/ha) was 10% and the “SINAR Obs (Observed percent weed control)” value ([2]; Table 4, Fall application, propyzamide 900 g ai/ha) was 38%. The “AVEFA Obs (Observed percent weed control)” value [3, 9] was 30% and the “AVEFA Obs (Observed percent weed control)” value [3, 11] was 30%.
Cc1nn(-c2cc(NS(C)(=O)=O)c(Cl)cc2Cl)c(=O)n1C(F)F [Sulfentrazone, N-[2,4-dichloro-5-[4-(difluoromethyl)-4,5-dihydro-3-methyl-5-oxo-1H-1,2,4-triazol-1-yl]phenyl]methanesulfonamide] was tested, and the “HORJU Obs (Observed percent weed control)” value [4, 12] was 15%, the “HORJU Obs (Observed percent weed control)” value [4, 13] was 28% and the “HORJU Obs (Observed percent weed control)” value [4, 14] was 15%. The “KCHSC Obs (Observed percent weed control)” value [1, 12] was 30%, the “KCHSC Obs (Observed percent weed control)” value [1, 13] was 40% and the “KCHSC Obs (Observed percent weed control)” value [1, 14] was 20%. The “KCHSC Obs (Observed percent weed control)” value [1, 15] was 20%, the “KCHSC Obs (Observed percent weed control)” value [1, 16] was 30% and the “SINAR Obs (Observed percent weed control)” value [2, 12] was 38%. The “SINAR Obs (Observed percent weed control)” value [2, 15] was 53%, the “SINAR Obs (Observed percent weed control)” value [2, 16] was 25% and the “AVEFA Obs (Observed percent weed control)” value [3, 14] was 0%. The “AVEFA Obs (Observed percent weed control)” value ([3]; Table 2, Spring application, sulfentrazone 105 g ai/ha) was 15% and the “AVEFA Obs (Observed percent weed control)” value ([3]; Table 3, Spring application, sulfentrazone 105 g ai/ha) was 0%.
